{
  "source": "patent US20120039926A1",
  "about": "“Compositions and Methods for Modulating Immunogenic Responses by Activating Dendritic Cells” (priority 2009, published 2012)",
  "key": {"[1]": {"test_system": "A/J or C57BL/6 female mice", "format": "in vivo, mouse"}, "[2]": {"test_system": "A/J or C57BL/6 female mice", "format": "in vivo, mouse", "conditions": "sera of days 3, 10 and 24"}, "[3]": {"test_system": "C57BL/6 bone marrow (BM) cells", "format": "cell-based, mouse", "conditions": "second day after treatment, 14.5 micromoles"}, "human monocytes": {"test_system": "human monocytes", "format": "cell-based", "conditions": "DC precursors (GMCSF and IL4), spent medium"}, "BM cells": {"test_system": "BM cells", "experiment": "Protein array of spent medium from treated BM cells", "format": "cell-based, mouse", "method": "Bone marrow (BM) cells were prepared. Briefly, the femurs and tibias were obtained from five C57BL/6 female mice, and the ends were removed to expose the hollow bone packed with marrow. BM cells were flushed from the bones with cold Hanks Balanced Salt Solution (HBSS) using a sterile disposable 22 g needle and pooled. Red blood cells (RBCs) were lysed using Tris-buffered ammonium chloride and resultant cells were washed 3 times in HBSS. BM cells were suspended in tissue culture medium (TCM) (RPMI 1640 with glutaminie plus […] PenStrep, 50 uM 2-mercaptoethanol, and 5% fetal calf serum) at approximately 5×10^6 cells/ml and incubated for 1 hour at 37° C. in a 5% CO2 atmosphere in plastic tissue culture flasks to remove adherent, mature macrophages. Decanted non-adherent cells were resuspended in TCM and 1.5×10^6 BM cells in 1 ml were placed into each well of a 24-well tissue culture plate (Falcon) and either left untreated or treated with 14.5 micromoles of J, gD, JgD or JH vaccines. After incubation for 48 hrs at 37° C., cells were viewed and photographed for changes in morphology, tissue culture supernatants were removed and the cells were prepared for flow cytometric analysis."}, "CD3- BM cells": {"test_system": "CD3- BM cells", "experiment": "Surface CD8 and intracellular IL-12p70 in CD3-depleted bone marrow cells", "format": "cell-based, mouse", "conditions": "BM cells after treatment", "from_the_text": "CD3+ cells were removed from BM cells using the fluorescence activated cell sorter and then untreated or treated with JgD or JH. Flow cytometric analysis of the sorted population confirmed the removal of CD3 positive cells. The CD3− BM cells were labeled with FITC-anti-CD8 (Beckman Coulter (clone 53-6.7)), fixed with paraformaldehyde, permeabilized with saponin (Intraprep, Immunotech), labeled with PE-anti-IL-12p70 (Beckman Coulter) and then post fixed with paraformaldehyde prior to immunofluorescence analysis."}},
  "data": [
    {"substance": "J-ICBL: immune cell binding ligand, amino acid 38-50 from the β-2-microglobulin (DLLKNGERIEKVE), unconjugated", "values": [
      {"measurement": "IL-10 serum level relative to adjuvant control", "setting": "[1]", "result": "significantly decreased to only a half or to a third"},
      {"measurement": "IL-12p40 serum level", "setting": "[1]; versus adjuvant control", "result": "small but not significant increase"},
      {"measurement": "IL-12p70 serum level", "setting": "[1]; versus adjuvant control", "result": "small but not significant increase"},
      {"measurement": "IL-12p70 in sera (direct ELISA), in words", "setting": "[2]", "result": "only trace or undetectable amounts"},
      {"measurement": "CD11c expression on monocyte population of BM cells", "setting": "[3]", "result": "no discernable change"},
      {"measurement": "CD86 expression on monocyte population of BM cells", "setting": "[3]", "result": "no discernable change"},
      {"measurement": "production of cytokines (protein array)", "setting": "human monocytes", "result": "no significant production of cytokines"},
      {"measurement": "cytokine response in spent medium of treated BM cells", "setting": "BM cells", "result": "failed to detect a cytokine response"},
      {"measurement": "IL-12p70 expressing cells", "setting": "CD3- BM cells", "result": "no significant increase"}
    ]}
  ]
}
